Measured values taken from ChEMBL document CHEMBL3259619, “Antibacterial activity of a series of N2,N4-disubstituted quinazoline-2,4-diamines” (J Med Chem, 2014).
≈ marks a conversion by molar mass, not a printed value. Calls of active or inactive are those of the source.

Key:
[1] = system: Staphylococcus aureus; assay: Antimicrobial activity against N2,N4-dibenzylquinazoline-2,4-diamine-induced methicillin-resistant Staphylococcus aureus CBD-635 mutant M2 assessed as complete inhibition of bacterial growth after overnight incubation; assay type: functional
[2] = system: Staphylococcus aureus; assay: Antimicrobial activity against methicillin-resistant Staphylococcus aureus CBD-635 assessed as complete inhibition of bacterial growth after overnight incubation; assay type: functional
[3] = system: Staphylococcus aureus; assay: Antimicrobial activity against N2,N4-dibenzylquinazoline-2,4-diamine-induced methicillin-resistant Staphylococcus aureus CBD-635 mutant M7 assessed as complete inhibition of bacterial growth after overnight incubation; assay type: functional
[4] = system: Staphylococcus aureus; assay: Antimicrobial activity against N2,N4-dibenzylquinazoline-2,4-diamine-induced methicillin-resistant Staphylococcus aureus CBD-635 mutant M5 assessed as complete inhibition of bacterial growth after overnight incubation; assay type: functional
[5] = system: Staphylococcus aureus; assay: Antimicrobial activity against N2,N4-dibenzylquinazoline-2,4-diamine-induced methicillin-resistant Staphylococcus aureus CBD-635 mutant M6 assessed as complete inhibition of bacterial growth after overnight incubation; assay type: functional
[6] = system: Staphylococcus aureus; assay: Antimicrobial activity against N2,N4-dibenzylquinazoline-2,4-diamine-induced methicillin-resistant Staphylococcus aureus CBD-635 mutant M4 assessed as complete inhibition of bacterial growth after overnight incubation; assay type: functional
[7] = system: Staphylococcus aureus; assay: Antimicrobial activity against N2,N4-dibenzylquinazoline-2,4-diamine-induced methicillin-resistant Staphylococcus aureus CBD-635 mutant M1 assessed as complete inhibition of bacterial growth after overnight incubation; assay type: functional
[8] = system: Staphylococcus aureus; assay: Antimicrobial activity against methicillin-resistant Staphylococcus aureus CBD-635 assessed as complete inhibition of bacterial growth at 5 times MIC after overnight incubation in presence of tetrahydrofolic acid; assay type: functional, organism-based
[9] = system: Staphylococcus aureus; assay: Antimicrobial activity against N2,N4-dibenzylquinazoline-2,4-diamine-induced methicillin-resistant Staphylococcus aureus CBD-635 mutant M3 assessed as complete inhibition of bacterial growth after overnight incubation; assay type: functional
[10] = system: Staphylococcus aureus; assay: Antimicrobial activity against methicillin-resistant Staphylococcus aureus CBD-635 assessed as zone of inhibition at 5 mg/ml after 24 hrs by disk diffusion assay; assay type: functional; details: CBD-635, 24 h, read-out: IZ
[11] = system: Klebsiella pneumoniae; assay: Antimicrobial activity against Klebsiella pneumoniae infected in mouse assessed as survival rate at 100 mg/kg; assay type: functional
[12] = system: Staphylococcus aureus; assay: Antimicrobial activity against Staphylococcus aureus; assay type: functional, organism-based
[13] = system: Klebsiella pneumoniae; assay: Antimicrobial activity against Klebsiella pneumoniae; assay type: functional
[14] = system: Escherichia coli; assay: Antimicrobial activity against Escherichia coli; assay type: functional
[15] = system: Staphylococcus aureus; assay: Antibacterial activity against trimethoprim-resistant Staphylococcus aureus; assay type: functional
[16] = system: Staphylococcus aureus; assay: Antibacterial activity against Staphylococcus aureus infected in mouse assessed as protection of mouse; assay type: functional
[17] = system: Staphylococcus aureus; assay: Bactericidal activity against methicillin-resistant Staphylococcus aureus CBD-635 assessed as bacterial killing; assay type: functional
[18] = system: Staphylococcus aureus; assay: Antimicrobial activity against quinazoline-resistant Staphylococcus aureus assessed as complete inhibition of bacterial growth after 24 hrs; assay type: functional, organism-based
[19] = system: Staphylococcus aureus; assay: Antimicrobial activity against wild type Staphylococcus aureus in presence of sulfamethoxazole; assay type: functional
[20] = system: Staphylococcus aureus; assay: Antimicrobial activity against Staphylococcus aureus infected Galleria mellonella assessed as increase in larvae survival at 10 times MIC; assay type: functional
[21] = system: Staphylococcus aureus; assay: Antimicrobial activity against trimethoprim-resistant Staphylococcus aureus assessed as complete inhibition of bacterial growth after 24 hrs; assay type: functional, organism-based
[22] = system: Staphylococcus aureus; assay: Antimicrobial activity against Staphylococcus aureus infected Galleria mellonella assessed as increase in larvae survival at 5 times MIC; assay type: functional
[23] = system: Streptococcus pyogenes; assay: Antimicrobial activity against Streptococcus pyogenes; assay type: functional
[24] = system: Aspergillus niger; assay: Antimicrobial activity against Aspergillus niger; assay type: functional
[25] = system: Bacillus subtilis; assay: Antimicrobial activity against Bacillus subtilis; assay type: functional, organism-based
[26] = system: Salmonella typhimurium; assay: Antimicrobial activity against Salmonella typhimurium; assay type: functional, Salmonella enterica subsp. enterica serovar Typhimurium; details: Salmonella enterica
[27] = system: Trichoderma viride; assay: Antimicrobial activity against Trichoderma viride; assay type: functional
[28] = system: Candida albicans; assay: Antimicrobial activity against Candida albicans; assay type: functional

| Structure (SMILES) | MIC [1] [µM] | MIC [2] [µM] | MIC [3] [µM] | MIC [4] [µM] | MIC [5] [µM] | MIC [6] [µM] | MIC [7] [µM] | inhibition [8] | MIC [9] [µM] | zone of inhibition at 5000 µg/mL [10] [mm] | further results |
| --- | --- | --- | --- | --- | --- | --- | --- | --- | --- | --- | --- |
| Cc1ccc(CNc2nc(NCc3ccc(C)cc3)c3ccccc3n2)cc1 | 27 (≈ 9.95 µg/mL) | 27 (≈ 9.95 µg/mL) | 2.7 (≈ 0.995 µg/mL) | 2.7 (≈ 0.995 µg/mL) | 2.7 (≈ 0.995 µg/mL) | 2.7 (≈ 0.995 µg/mL) | 27 (≈ 9.95 µg/mL) | inactive | 2.7 (≈ 0.995 µg/mL) |  |  |
| Clc1ccc2c(NCc3ccccc3)nc(NCc3ccccc3)nc2c1 | 27 (≈ 10.1 µg/mL) | 27 (≈ 10.1 µg/mL) | 2.7 (≈ 1.01 µg/mL) | 2.7 (≈ 1.01 µg/mL) | 2.7 (≈ 1.01 µg/mL) | 2.7 (≈ 1.01 µg/mL) | 27 (≈ 10.1 µg/mL) | inactive | 2.7 (≈ 1.01 µg/mL) |  |  |
| Cc1ccc(CNc2nc(NCc3ccccc3)nc3ccccc23)cc1 | 2.8 (≈ 0.992 µg/mL) | 71 (≈ 25.2 µg/mL) | 28 (≈ 9.92 µg/mL) | 28 (≈ 9.92 µg/mL) | 28 (≈ 9.92 µg/mL) | 28 (≈ 9.92 µg/mL) | 2.8 (≈ 0.992 µg/mL) | inactive | 28 (≈ 9.92 µg/mL) |  |  |
| CSCCNc1nc(NC(C)C)nc2ccccc12 |  | > 360 |  |  |  |  |  | inactive |  | 9 |  |
| CC(C)Nc1nc(NCc2ccccc2)nc2ccccc12 |  | 34 (≈ 9.94 µg/mL) |  |  |  |  |  | inactive |  | 13 |  |
| CC(C)Nc1nc(NCc2ccco2)nc2ccccc12 |  | 35 (≈ 9.88 µg/mL) |  |  |  |  |  | inactive |  | 12 |  |
| COc1ccc(CNc2nc(NCc3ccc(OC)cc3)c3ccccc3n2)cc1 | > 250 | 25 (≈ 10 µg/mL) | > 250 | 125 (≈ 50.1 µg/mL) | 125 (≈ 50.1 µg/mL) | > 250 | > 250 | inactive | > 250 |  |  |
| c1ccc(CNc2nc(Nc3ccccc3)c3ccccc3n2)cc1 |  | 31 (≈ 10.1 µg/mL) |  |  |  |  |  | inactive |  | 10 |  |
| COc1ccc(CNc2nc(NCc3ccccc3)nc3ccccc23)cc1 | 27 (≈ 10 µg/mL) | 68 (≈ 25.2 µg/mL) | 27 (≈ 10 µg/mL) | 27 (≈ 10 µg/mL) | 2.7 (≈ 1 µg/mL) | 2.7 (≈ 1 µg/mL) | 27 (≈ 10 µg/mL) | inactive | 27 (≈ 10 µg/mL) |  |  |
| COc1cc2nc(N3CCC(Nc4ccc(C(=O)O)cc4)CC3)nc(N)c2cc1OC |  |  |  |  |  |  |  |  |  |  | survival at 100 mg/kg [11]: 40%; MIC [12]: 12 µM; MIC [13]: 12 µM; MIC [14]: 2 µM |
| c1ccc(CNc2nc(NCc3ccco3)c3ccccc3n2)cc1 |  | 30 (≈ 9.91 µg/mL) |  |  |  |  |  | inactive |  | 11 |  |
| Cc1cc2nc(-c3nccs3)n(-c3ccc4c(N)nc(N)nc4c3)c2cc1C |  |  |  |  |  |  |  |  |  |  | MIC [15]: 0.25 µg/mL (≈ 0.645 µM); PD50 [16]: 2 mg/kg |
| Clc1ccc(CNc2nc(NCc3ccc(Cl)cc3)c3ccccc3n2)cc1 | 2.4 (≈ 0.982 µg/mL) | 2.4 (≈ 0.982 µg/mL) |  |  |  |  | 2.4 (≈ 0.982 µg/mL) | inactive |  |  | MBC50 [17]: 7.2 µM (≈ 2.95 µg/mL); inhibition [18]: Active; fractional inhibitory concentration index (FICI) [19]: 0.12; Survival [20]: 60%; inhibition [21]: Active; Survival [22]: 50% |
| c1ccc2c(c1)cc1c3ccccc3nc(-c3csc4ccccc34)n21 |  |  |  |  |  |  |  |  |  |  | MIC [23]: 2 µg/mL (≈ 5.71 µM); MIC [24]: 2 µg/mL (≈ 5.71 µM); MIC [25]: 2 µg/mL (≈ 5.71 µM); MIC [12]: 2 µg/mL; MIC [13]: 2 µg/mL; MIC [26]: 2 µg/mL (≈ 5.71 µM); MIC [27]: 2 µg/mL (≈ 5.71 µM); MIC [14]: 2 µg/mL; MIC [28]: 2 µg/mL (≈ 5.71 µM) |
| Clc1ccc(Nc2nc(NCc3ccco3)nc3ccccc23)cc1 |  | 29 (≈ 10.2 µg/mL) |  |  |  |  |  | inactive |  | 10 |  |
| c1coc(CNc2nc(NC3CCCC3)nc3ccccc23)c1 |  | 160 (≈ 49.3 µg/mL) |  |  |  |  |  | inactive |  | 12 |  |
| COc1ccc2nc(NC(C)C)nc(NCc3ccco3)c2c1 |  | 80 (≈ 25 µg/mL) |  |  |  |  |  | inactive |  | 10 |  |
| COc1ccc(CNc2nc(NCc3ccccc3)c3ccccc3n2)cc1 | 0.67 (≈ 0.248 µg/mL) | 0.67 (≈ 0.248 µg/mL) | 270 (≈ 100 µg/mL) | 270 (≈ 100 µg/mL) | 270 (≈ 100 µg/mL) | 270 (≈ 100 µg/mL) | 0.67 (≈ 0.248 µg/mL) | inactive | 0.67 (≈ 0.248 µg/mL) |  |  |
| CC(C)Nc1nc(NC2CCCC2)c2ccccc2n1 |  | 37 (≈ 10 µg/mL) |  |  |  |  |  | inactive |  | 10 |  |
| Cc1ccc(CNc2nc(NCc3ccccc3)c3ccccc3n2)cc1 | 2.8 (≈ 0.992 µg/mL) | 28 (≈ 9.92 µg/mL) | 2.8 (≈ 0.992 µg/mL) | 2.8 (≈ 0.992 µg/mL) | 2.8 (≈ 0.992 µg/mL) | 2.8 (≈ 0.992 µg/mL) | 28 (≈ 9.92 µg/mL) | inactive | 2.8 (≈ 0.992 µg/mL) |  |  |
